Here are results for eight molecules from paper PMC11801377, “A uniquely efficacious type of CFTR corrector with complementary mode of action” (Science Advances, 2024).

By EC50 is commonly meant the concentration giving half of the maximal effect.

Assay [1] addresses T1, F508del-CFTR (Homo sapiens, UniProt P13569, DEL508-508). Kind of assay: Halide-sensitive YFP quenching assay in U2OS-F508del-CFTR-YFP cells. Details: host or cells: U2OS (PathHunter U2OS-F508del-CFTR MEM-EA). The class given is cell-based. As to the method: U2OS-F508del-CFTR cells expressing Topaz-YFP F46L/H148Q/I152L were seeded at 20,000 cells per well into 384-well black clear-bottom plates in 40 μl per well growth medium (Mc COY’s 5A, Gibco, 10% FBS, penicillin/streptomycin), containing the various CFTR correctors at the indicated concentrations. The cells were coincubated with the compounds for 24 hours (37°C, 5% CO2). The next day, plates were washed twice with PBS^+ (55 μl per well; PBS containing 0.9 mM Ca^2+ and 0.5 mM Mg^2+). PBS^+ was fully removed, and cells were supplemented with 15 μl PBS^+. Then, 5 μl of 4× concentrated stocks of IVA or vehicle in dilution buffer [PBS^+, 0.1 μM forskolin, and 0.2% bovine serum albumin (fatty acid free) (pH 7.4)] were added and incubated for 30 min in the dark. For experiments with I-172 (Sigma- Aldrich), the inhibitor was added to the mix with either IVA or vehicle to reach a final concentration in cells of 20 μM. Then, plates were transferred to the FLIPR Tetra (fluorescence imaging plate reader; Molecular Devices: excitation: 470 to 495 nm; emission: 526 to 585 nm), baseline fluorescence reading of the YFP signal was performed for 6 s (10 × 0.6 s intervals) after which 25 μl of iodide buffer [137 mM NaI, 2.7 mM KCl, 1.5 mM KH2PO4, 8.1 mM Na2HPO4, 1 mM CaCl2, and 0.5 mM MgCl2 (pH 7.4)] was added, and fluorescence reading was continued for 70 s (50 × 0.6 s intervals; 20 x 2 s intervals) to assess YFP quenching through CFTR-mediated iodide influx. For analysis, fluorescence traces were aligned and normalized at the last time point before iodide addition (normalized fluorescence = 1). Normalized fluorescence values obtained 20 s after the beginning of the assay were used to assess the degree of YFP quenching, i.e., CFTR function (see fig. S1J). […] Then, plates were read and analyzed as above. […] Then, plates were transferred to the FLIPR Tetra and read and analyzed as above.

Assay [2] has as its target T1, F508del-CFTR. Kind of assay: Pharmacochaperone trafficking assay: F508del-CFTR cell surface expression in U2OS cells. In kind it is cell-based. More on the design: host or cells: U2OS (PathHunter U2OS-F508del-CFTR MEM-EA). The procedure: This assay was adapted from the DiscoverX PathHunter pharmacochaperone trafficking assay, which is based on the enzyme fragment complementation technique. Briefly, the U2OS-F508del-CFTR cell line (DiscoveRx, #93-0987C3) is engineered to coexpress (i) human F508del-CFTR tagged with a Prolink (PK = short β-galactosidase fragment) and (ii) the remainder of the β-galactosidase enzyme [enzyme acceptor (EA)] localized to the PM. Incubation with compounds that increase trafficking of PK-tagged F508del-CFTR to the PM will lead to complementation of the EA fragment to form a functional β-galactosidase enzyme, which is quantified by a chemiluminescence reaction reporting cell surface CFTR expression. The same principle applies to the counterscreen using U2OS-ADRB2(W158A) cells (DiscoveRx, #93-0986C3). Freshly thawed U2OS-F508del-CFTR and U2OS-ADRB2(W158A) were seeded at 3500 or 5000 cells per well, respectively, in 20 μl per well of cell assay medium [McCoy (Life Technologies), 10% FBS, penicillin (100 U/ml), and streptomycin ([…])] in a 384 white low-volume plate (Corning). Predilutions of compounds in dimethyl sulfoxide (DMSO) were prepared in a 384-well polypropylene plate using an automated liquid-handling system. Dilution series were then transferred into cell assay medium in a polypropylene 384-well plate (Greiner) to obtain 5× concentrated aqueous working stocks. Five hours after cell seeding, 5× working stocks (5 μl per well) were added to the cells (20 μl per well) for an incubation overnight at 37°C. The next day, after 2 hours at room temperature, the cell plates were incubated with 10 μl of Flash detection reagent (#93-0247, DiscoverX) for 30 min, and chemiluminescence signals were detected with a microplate reader (Synergy MX, Agilent BioTek). Chemiluminescence data were normalized to the signal of basal vehicle-treated cells, and mean chemiluminescence values were converted to concentration-response curves for determination of EC50 and Emax values (GraphPad Prism).
Both above described cell lines [U2OS-F508del-CFTR and U2OS-ADRB2(W158A)] and assays were also used in the high-throughput screening campaign in which compounds were tested at 10 μM concentration with LUM (3 μM) or propranolol (100 nM) serving as 100% controls.

The next assay has as its system F508del.K14A-CFTR. Briefly: Site-directed mutagenesis immunoblotting, HEK-TREx, F508del.K14A-CFTR. In kind it is cell-based, human. The following applies: 40 h, 2 μM. From the text:
(§1) The human CFTR expressing HEK cell pools with the mutations described below were generated by integrase-mediated homologous recombination of the CFTR sequence into the T-REx HEK293 background (Thermo Fisher Scientific). This expression system allows the tetracycline-inducible expression of genes of interest from one defined insertion site. Parental T-REx-HEK293 cells were cultivated in growth medium: Dulbecco’s modified Eagle’s medium + GlutaMAX-I (#31966, Life Technologies), 10% dialyzed FBS (Gibco, #26400), penicillin (100 U/ml), streptomycin (100 μg/ml), hygromycin B (0.1 mg/ml; Life Technologies), blasticidin (5 μg/ml; Invitrogen, #R210-01), and 0.1 mM nonessential amino acid solution (Invitrogen, #11140-035). Recombinant T-REx-HEK-CFTR cells were generated by lipofectamine transfection (Life Technologies) of plasmids containing mutated versions of CFTR (RefSeq NM_000492) and then cultivated in selection medium [growth medium containing Geneticin (1 mg/ml) (Invitrogen, #10131-027) instead of hygromycin]. The plasmid constructs were synthetized by GENEART (Thermo Fisher Scientific) and designed with the WT CFTR intron 5 to 6 (880 nucleotides) to prevent leaky expression issues during the cloning process in bacteria. […]

A further assay concerns F508del.L15W-CFTR. Kind of assay: Site-directed mutagenesis immunoblotting, HEK-TREx, F508del.L15W-CFTR. In kind it is cell-based, human. The following applies: 40 h, 2 μM.
Source text: as §1
For orientation: Immunoblotting shows a protein as a band on a membrane.

Assay [3] concerns the target T2, MSD2-NBD2 fragment (M837-L1480-CFTR) (Homo sapiens, UniProt P13569).
T2 construct: expressed in transfected cells; host or cells: T-REx HEK293
Kind of assay: Truncated CFTR construct levels (immunoblotting), MSD2-NBD2 fragment. The following applies: HEK-TREx cells, 40 hours; C4a 10 μM. In kind it is cell-based.
Source text: as §1

For the next assay, the system named is CFTR. More on the design: method as in earlier work. The following applies: ref [27] (GLPG-2737); ref [21], [26], [27] (ELX); cited from earlier work.
The mark [4] stands for this setting: U2OS cells, overnight treatment.

T1 sequence (P13569 with tags, fused parts or gaps DEL508-508): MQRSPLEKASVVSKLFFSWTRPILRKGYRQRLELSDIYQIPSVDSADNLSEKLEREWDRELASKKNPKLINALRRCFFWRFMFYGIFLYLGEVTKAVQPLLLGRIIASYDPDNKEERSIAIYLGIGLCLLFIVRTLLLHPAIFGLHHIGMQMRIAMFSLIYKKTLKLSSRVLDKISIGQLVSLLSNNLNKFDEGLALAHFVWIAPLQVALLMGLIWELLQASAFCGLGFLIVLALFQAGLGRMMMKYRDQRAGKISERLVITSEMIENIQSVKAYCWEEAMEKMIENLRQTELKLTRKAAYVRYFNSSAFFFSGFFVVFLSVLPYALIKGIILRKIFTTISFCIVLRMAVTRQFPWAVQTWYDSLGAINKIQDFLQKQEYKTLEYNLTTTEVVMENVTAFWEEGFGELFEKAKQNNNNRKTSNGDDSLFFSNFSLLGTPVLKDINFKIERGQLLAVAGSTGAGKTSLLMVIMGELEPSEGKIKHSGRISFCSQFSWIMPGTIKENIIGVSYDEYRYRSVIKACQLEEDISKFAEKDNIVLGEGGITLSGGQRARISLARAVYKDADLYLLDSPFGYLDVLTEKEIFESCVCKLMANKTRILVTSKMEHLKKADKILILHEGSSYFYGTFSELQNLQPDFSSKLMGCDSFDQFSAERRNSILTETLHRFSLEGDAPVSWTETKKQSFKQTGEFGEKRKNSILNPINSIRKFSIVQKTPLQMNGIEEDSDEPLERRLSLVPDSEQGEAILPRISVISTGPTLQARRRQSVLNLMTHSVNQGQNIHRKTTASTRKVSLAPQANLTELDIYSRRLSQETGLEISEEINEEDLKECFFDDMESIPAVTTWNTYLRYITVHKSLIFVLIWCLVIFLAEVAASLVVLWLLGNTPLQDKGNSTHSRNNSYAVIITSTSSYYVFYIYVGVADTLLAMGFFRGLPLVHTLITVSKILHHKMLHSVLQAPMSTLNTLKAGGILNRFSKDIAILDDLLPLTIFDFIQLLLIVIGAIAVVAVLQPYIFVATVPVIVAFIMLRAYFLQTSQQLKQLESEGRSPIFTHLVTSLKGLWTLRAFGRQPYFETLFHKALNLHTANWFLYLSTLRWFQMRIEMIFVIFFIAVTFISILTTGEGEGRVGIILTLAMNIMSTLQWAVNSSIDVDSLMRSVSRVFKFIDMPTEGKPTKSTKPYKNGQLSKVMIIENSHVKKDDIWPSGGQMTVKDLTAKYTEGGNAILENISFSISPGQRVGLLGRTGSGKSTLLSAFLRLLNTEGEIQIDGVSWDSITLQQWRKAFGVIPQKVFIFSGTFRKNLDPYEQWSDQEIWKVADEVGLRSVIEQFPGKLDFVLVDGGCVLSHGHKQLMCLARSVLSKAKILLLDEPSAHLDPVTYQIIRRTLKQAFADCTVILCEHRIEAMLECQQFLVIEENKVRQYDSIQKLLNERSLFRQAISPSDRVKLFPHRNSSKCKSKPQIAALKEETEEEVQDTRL
T2 sequence (P13569 837-1480): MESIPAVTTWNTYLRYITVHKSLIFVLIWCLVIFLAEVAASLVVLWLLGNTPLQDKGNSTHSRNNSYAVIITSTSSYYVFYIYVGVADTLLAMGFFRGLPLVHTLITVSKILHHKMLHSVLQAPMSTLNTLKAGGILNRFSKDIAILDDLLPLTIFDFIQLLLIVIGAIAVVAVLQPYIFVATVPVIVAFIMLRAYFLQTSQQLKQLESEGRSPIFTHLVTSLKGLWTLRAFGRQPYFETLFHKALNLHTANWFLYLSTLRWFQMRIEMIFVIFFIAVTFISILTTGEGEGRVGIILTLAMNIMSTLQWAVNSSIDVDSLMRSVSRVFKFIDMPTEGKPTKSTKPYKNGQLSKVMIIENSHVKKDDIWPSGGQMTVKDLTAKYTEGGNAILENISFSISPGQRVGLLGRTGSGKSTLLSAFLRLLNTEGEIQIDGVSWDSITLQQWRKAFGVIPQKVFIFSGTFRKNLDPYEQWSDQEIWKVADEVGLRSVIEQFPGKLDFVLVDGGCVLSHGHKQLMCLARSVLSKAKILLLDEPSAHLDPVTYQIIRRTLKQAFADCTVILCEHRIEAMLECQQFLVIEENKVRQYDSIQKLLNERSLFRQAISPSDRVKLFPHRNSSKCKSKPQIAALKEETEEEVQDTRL

In the case of `CC(C)(C)c1cc(C(C)(C)C)c(NC(=O)c2c[nH]c3ccccc3c2=O)cc1O` [IVA, ivacaftor], the EC80 of potentiator on F508del-CFTR [1] (concentration used as ~EC80) is on record as ~2 nM.

`O=C(O)c1ccc([C@H]2C[C@@H](NC(=O)C3(c4ccc5c(c4)OC(F)(F)O5)CC3)c3ccc(OC(F)F)cc3O2)cc1` [GAL, galicaftor]: at F508del-CFTR [2] (setting [4]), the “maximal F508del-CFTR surface expression (Emax)” value is “four- to fivefold”.

In the case of `C[C@@H]1CN(c2nc(-n3ccc(OCCC4(C(F)(F)F)CC4)n3)ccc2C(=O)NS(=O)(=O)c2ccccc2)C(C)(C)C1` [BAM, bamocaftor], the “maximal F508del-CFTR surface expression (Emax)” value on F508del-CFTR [2] (setting [4]) is “seven- to ninefold”.

Regarding `CC(C)CC1C(=O)N(C)CC(=O)NC(Cc2ccccc2)COc2ccccc2C(=O)NC(C(=O)NCCc2ccccc2)CC(=O)N1C` (stereo not drawn) [IDOR-0], on F508del-CFTR [2] (setting [4]), the EC50 stood at 1600 nM and the “maximal F508del-CFTR surface expression (Emax)” value is reported as 3 fold over baseline.

With `COc1nc(C)cc2c1C(=O)NC(C(=O)NCCc1cccc(N=[N+]=[N-])c1)CC(=O)N(C)C(CC(C)C)C(=O)N(C)C(CC1CCCC1)C(=O)NC(Cc1ccccc1)CO2` (stereo not drawn) [IDOR-6A], the “weaker correction by macrocycles as compared to [LUM + BAM]” value in the assay with F508del.K14A-CFTR was “two- to fourfold”. For the same molecule, the “correction by macrocycles versus [LUM + BAM]” value with F508del.L15W-CFTR is reported as “little difference”.

As to `COc1ccc(Cl)cc1Nc1nc(-c2sc(NC(=O)c3ccccc3)nc2C)cs1` [C4a, corrector 4a], the “maximal F508del-CFTR surface expression (Emax)” value at F508del-CFTR [2] (setting [4]) is given as “four- to fivefold”. Moreover, at F508del-CFTR [2] (applied on top of / titrated onto IDOR-4), the “additivity in F508del-CFTR surface expression” value is given as “full additivity or even synergy”. Also, the “expression of the MSD2-NBD2 fragment” value in assay [3] was “increased the expression of its glycosylated and nonglycosylated forms”.

As to `O=C(O)c1ccc(/C=C2\SC(=S)N(c3cccc(C(F)(F)F)c3)C2=O)cc1` [I-172], the “effect on corrector-induced YFP quenching responses” value on F508del-CFTR [1] (I-172 20 μM) is “blocked”.

`COC1CCN(C2CCN(c3cc(C(=O)NS(=O)(=O)N(C)C)nc4c3c(C3CCC3)nn4-c3ccc(F)cc3)CC2)CC1` [GLPG-2737]: in the assay with CFTR, the “acute effect on CFTR currents” value is “acute inhibitory”.
